Measured values: patent US20240425454A1, “IONIZABLE CATIONIC COMPOUND” (SEQIRUS INC., priority 2021, published 2024)

Assay: TNS fluorescence pKa protocol on saRNA-LNP
Format: physicochemical
Conditions: saRNA-LNP containing the lipid, in a series of buffers; saRNA-LNP with the lipid; TNS 6 μM, pH 4 to 9.5, 25° C.; read-out: Apparent pKa
Method: In a black 96-well plate, solutions of saRNA-LNP (final assay concentration 2 μg/mL total RNA) in a series of buffers ranging from pH 4 to 9.5 were prepared. Buffers between pH 4 to 7.6 were prepared from disodium phosphate and citric acid. Buffers from 7.8 to 9.5 were prepared by titrating tris buffer with 10 N sodium hydroxide. To each well was added 6-(p-Toluidino)-2-naphthalenesulfonic acid sodium salt (TNS) in water to a final assay concentration of 6 μM. The fluorescence was read on a plate reader at 25° C. with an excitation setting of 321 nm and an emission setting of 445 nm. The intensity values were plotted as a function of pH using GraphPad Prism and were fit with a sigmoidal dose response curve. The apparent pKa was determined as the EC50 of this curve where half of the ionizable amines are expected to be protonated (see FIG. 1).

| SMILES | pKa |
| --- | --- |
| CCCCC(CCCC)OC(=O)CCCCCCCCC(CCCCCCCCC(=O)OC(CCCC)CCCC)OC(=O)COC1CCN(C)CC1 [SL06] | 7.1 |
| CCCCC(CCCC)OC(=O)CCCCCCCCC(CCCCCCCCC(=O)OC(CCCC)CCCC)OC(=O)CSC1CCN(C)CC1 [SL07] | 6.1 |
| CCCCC(CCCC)OC(=O)CCCCCCCCC(CCCCCCCCC(=O)OC(CCCC)CCCC)OC(=O)COCCN(C)C [SL08] | 7 |
| CCCCC(CCCC)OC(=O)CCCCCCCCC(CCCCCCCCC(=O)OC(CCCC)CCCC)OC(=O)COCCCN(C)C [SL09] | 7.1 |
| CCCCC(CCCC)OC(=O)CCCCCCCCC(CCCCCCCCC(=O)OC(CCCC)CCCC)OC(=O)CSCCN(C)C [SL10] | 5.8 |
| CCCCC(CCCC)OC(=O)CCCCCCCCC(CCCCCCCCC(=O)OC(CCCC)CCCC)OC(=O)CSCCN(CC)CC [SL11] | 5.6 |
| CCCCC(CCCC)OC(=O)CCCCCCCCC(CCCCCCCCC(=O)OC(CCCC)CCCC)OC(=O)COC1CCN(CCCO)CC1 [SL12] | 6.9 |
